Consider 22 compounds from patent US20080207614A1, “QUINAZOLINE DERIVATIVES FOR THE TREATMENT AND PREVENTION OF DIABETES AND OBESITY” (SK CHEMICALS CO., LTD., priority 2004, published 2008).

For one assay, the system named is C2C12 muscle cells. The experiment in a line: Analysis of glucose absorption (2-deoxyglucose) in differentiated C2C12 muscle cells. To be noted: test materials 10 μM, times relative to control group. It is filed as cell-based. Put shortly: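 Uptake of 0.2 μCi 2-deoxyglucose over 20 min, counted radiometrically in lysed cells. Before tracer, compounds (10 μM) were applied for 30 min to C2C12 cells differentiated 6 days in 1% serum and equilibrated 3 h in 5 mM glucose KRB.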

For a further assay, the system named is AMPK. Briefly: Measurement of AMPK activity by Western blot in C2C12 cells. It is filed as cell-based. More on the design: key to AMPK activity (degree of phosphorylation of serine-79 and threonine-172): fold increase in threonine-172 phosphorylation; AMPK activity (degree of phosphorylation of serine-79): unit not given here. To be noted: 10 μM for 50 minutes; for AMPK activity (degree of phosphorylation of serine-79 and threonine-172): no superscript: Western blot of serine-79 and threonine-172 phosphorylation; for AMPK activity (class: degree of phosphorylation of threonine-172): strong/mild/weak. Put shortly:
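Western blot readout of AMPK Thr-172 and ACC Ser-79 phosphorylation, normalised against ERK, served as the activity measure. Cells were C2C12 after differentiation, treated 50 minutes with 10 μM test material. Grading by Thr-172 increase: ≥3-fold strong, 1-3-fold mild, <1-fold weak.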
In general terms: Immunoblotting shows a protein as a band on a membrane.

For `COc1cccc(CNc2nc(Cc3ccccc3)nc3ccccc23)c1OC` [Compound 329, (2-Benzylquinazolino-4-yl)-(2,3-dimethoxybenzyl)-amine], in the assay with C2C12 muscle cells, the Glucose absorption turned out to be 1.8. Besides, in the assay on AMPK, the “AMPK activity (degree of phosphorylation of serine-79 and threonine-172)” value is on record as 4.2.

In turn, `COc1ccc(OC)c(CNc2ncnc3ccccc23)c1` [Compound 413, (2,5-Dimethoxybenzyl)-quinazolino-4-ylamine] had a Glucose absorption with C2C12 muscle cells of 1.2. For the same compound, in the assay with AMPK, the “AMPK activity (degree of phosphorylation of serine-79 and threonine-172)” value turned out to be 1.7.

`COc1cc(CNc2nc(N3CCOCC3)nc3ccccc23)cc(OC)c1` [Compound 305, (3,5-Dimethoxybenzyl)-(2-morpholino-4-ylquinazolino-4-yl)-amine] had a Glucose absorption in the assay with C2C12 muscle cells of 0.8. Moreover, the “AMPK activity (degree of phosphorylation of serine-79 and threonine-172)” value with AMPK turned out to be 2.1.

On to `COc1cccc(CNc2nc(C(OC)c3ccccc3)nc3ccccc23)c1` (stereo not shown) [Compound 361, (3-Methoxybenzyl)-[2-(methoxyphenylmethyl)-quinazolino-4-yl]-amine], for which, in the assay with C2C12 muscle cells, the Glucose absorption was determined as 1.3. Also, the “AMPK activity (degree of phosphorylation of serine-79 and threonine-172)” value with AMPK turned out to be 2.1.

Turning to `C=CCNc1ncnc2cc(OCC)c(OCC)cc12` [Compound 16, Allyl-(6,7-diethoxyquinazolino-4-yl)-amine], the Glucose absorption with C2C12 muscle cells stood at 1.3. Moreover, the “AMPK activity (degree of phosphorylation of serine-79)” value with AMPK (footnote a: Western blot of serine-79 phosphorylation) was 3.1^a.

In the assay on C2C12 muscle cells, `Brc1ccc(CNc2nc(-c3ccccc3)nc3ccccc23)cc1` [Compound 148, (4-Bromobenzyl)-(2-phenylquinazolino-4-yl)-amine] displayed a Glucose absorption of 2.1. In the assay with AMPK, the “AMPK activity (degree of phosphorylation of serine-79 and threonine-172)” value was 1.7; the “AMPK activity (class: degree of phosphorylation of threonine-172)” value is reported as “strong (“strong” means that the degree of phosphorylation of threonine-172 increased by 3 times or more)”.

For the compound `COc1ccc(CNc2nc(N3CCN(C)CC3)nc3ccccc23)cc1OC` [Compound 302, (3,4-Dimethoxybenzyl)-[2-(4-methylpiperazino-1-yl)-quinazolino-4-yl]-amine], the Glucose absorption in the assay on C2C12 muscle cells is listed as 0.7. In addition, the “AMPK activity (degree of phosphorylation of serine-79 and threonine-172)” value with AMPK stood at 1.2.

For `Clc1ccc(CNc2nc(-c3ccccc3)nc3ccccc23)c(Cl)c1` [Compound 108, (2,4-Dichlorobenzyl)-(2-phenylquinazolino-4-yl)-amine], the Glucose absorption in the assay on C2C12 muscle cells is 2.2. Moreover, in the assay on AMPK, the “AMPK activity (degree of phosphorylation of serine-79 and threonine-172)” value is on record as 2.2; the “AMPK activity (class: degree of phosphorylation of threonine-172)” value was “strong (“strong” means that the degree of phosphorylation of threonine-172 increased by 3 times or more)”.

`Clc1ccc(CCNc2nc(-c3ccccc3)nc3ccccc23)cc1Cl` [Compound 149, [2-(3,4-Dichlorophenyl)-ethyl]-(2-phenylquinazolino-4-yl)-amine] had a Glucose absorption in the assay with C2C12 muscle cells of 2.6. In addition, in the assay with AMPK, the “AMPK activity (degree of phosphorylation of serine-79 and threonine-172)” value turned out to be 2.5; the “AMPK activity (class: degree of phosphorylation of threonine-172)” value is reported as “strong (“strong” means that the degree of phosphorylation of threonine-172 increased by 3 times or more)”.

In turn, `Cc1ccc(CCNc2nc(-c3ccccc3)nc3ccccc23)cc1` [Compound 119, (2-Phenylquinazolino-4-yl)-(2-p-tollylethyl)-amine] came in with a Glucose absorption in the assay on C2C12 muscle cells of 2.6. Also, in the assay with AMPK, the “AMPK activity (degree of phosphorylation of serine-79 and threonine-172)” value was determined as 2.3; the “AMPK activity (class: degree of phosphorylation of threonine-172)” value is listed as “strong (“strong” means that the degree of phosphorylation of threonine-172 increased by 3 times or more)”.

In the case of `Cc1nc(NCc2cccc3ccccc23)c2ccccc2n1` [Compound 169, (2-Methylquinazolino-4-yl)-naphthaleno-1-ylmethylamine], the Glucose absorption in the assay on C2C12 muscle cells is given as 2.5. In the assay on AMPK, the “AMPK activity (degree of phosphorylation of serine-79 and threonine-172)” value is 6.6; the “AMPK activity (class: degree of phosphorylation of threonine-172)” value was “strong (“strong” means that the degree of phosphorylation of threonine-172 increased by 3 times or more)”.

As to `COc1cc(CNc2nc(-c3ccco3)nc3ccccc23)cc(OC)c1` [Compound 343, (3,5-Dimethoxybenzyl)-(2-furano-2-ylquinazolino-4-yl)-amine], the Glucose absorption with C2C12 muscle cells was 1.3. The “AMPK activity (degree of phosphorylation of serine-79 and threonine-172)” value in the assay with AMPK is listed as 0.8.

As for `COc1ccc(CNc2nc(N3CCCCC3)nc3ccccc23)c(OC)c1` [Compound 292, (2,4-Dimethoxybenzyl)-(2-piperidino-1-ylquinazolino-4-yl)-amine], in the assay with C2C12 muscle cells, the Glucose absorption was determined as 0.7. The “AMPK activity (degree of phosphorylation of serine-79 and threonine-172)” value in the assay on AMPK is 1.2.

In the assay with C2C12 muscle cells, `c1ccc2c(NCc3ccc4c(c3)OCO4)nc(N3CCOCC3)nc2c1` [Compound 309, Benzo[1,3]dioxol-5-ylmethyl-(2-morpholino-4-ylquinazolino-4-yl)-amine] showed a Glucose absorption of 0.8. The “AMPK activity (degree of phosphorylation of serine-79 and threonine-172)” value in the assay on AMPK came out at 1.3.

Regarding `COc1cc(CNc2nc(C(C)C)nc3ccccc23)cc(OC)c1OC` [Compound 325, (2-Isopropylquinazolino-4-yl)-(3,4,5-trimethoxybenzyl)-amine], the Glucose absorption in the assay on C2C12 muscle cells was 1.2. In addition, in the assay with AMPK, the “AMPK activity (degree of phosphorylation of serine-79 and threonine-172)” value worked out at 2.2.

In the assay on C2C12 muscle cells, `COc1cc(OC)c(CNc2ncnc3ccccc23)c(OC)c1` [Compound 414, Quinazolino-4-yl-(2,4,6-trimethoxybenzyl)-amine] showed a Glucose absorption of 1.5. In the assay on AMPK, the “AMPK activity (degree of phosphorylation of serine-79 and threonine-172)” value is listed as 2.9.

The compound `COc1ccc(CNc2nc(C3CCCCC3)nc3ccccc23)cc1` [Compound 201, (2-Cyclohexylquinazolino-4-yl)-(4-methoxybenzyl)-amine] showed a Glucose absorption in the assay on C2C12 muscle cells of 1.7. In the assay on AMPK, the “AMPK activity (degree of phosphorylation of serine-79 and threonine-172)” value was 2.8; the “AMPK activity (class: degree of phosphorylation of threonine-172)” value was “strong (“strong” means that the degree of phosphorylation of threonine-172 increased by 3 times or more)”.

In the assay on C2C12 muscle cells, `COc1cccc(CNc2nc(C3CCCCC3)nc3ccccc23)c1` [Compound 200, (2-Cyclohexylquinazolino-4-yl)-(3-methoxybenzyl)-amine] showed a Glucose absorption of 2.7. In the assay with AMPK, the “AMPK activity (degree of phosphorylation of serine-79 and threonine-172)” value came to 1.5; the “AMPK activity (class: degree of phosphorylation of threonine-172)” value was “strong (“strong” means that the degree of phosphorylation of threonine-172 increased by 3 times or more)”.

On to `COc1ccc(CNc2nc(N3CCOCC3)nc3ccccc23)cc1OC` [Compound 301, (3,4-Dimethoxybenzyl)-(2-morpholino-4-ylquinazolino-4-yl)-amine], for which the Glucose absorption in the assay with C2C12 muscle cells turned out to be 0.8. In the assay with AMPK, the “AMPK activity (degree of phosphorylation of serine-79 and threonine-172)” value turned out to be 0.9.

Regarding `CC(C)(C)c1nc(NCCCCc2ccccc2)c2ccccc2n1` [Compound 192, (2-tert-Butylquinazolino-4-yl)-(4-phenylbutyl)-amine], the Glucose absorption in the assay with C2C12 muscle cells is 2.1. In the assay on AMPK, the “AMPK activity (degree of phosphorylation of serine-79 and threonine-172)” value amounted to 6.5; the “AMPK activity (class: degree of phosphorylation of threonine-172)” value is recorded as “strong (“strong” means that the degree of phosphorylation of threonine-172 increased by 3 times or more)”.

In the assay on C2C12 muscle cells, `c1ccc2c(NCc3ccc4c(c3)OCO4)ncnc2c1` [Compound 407, Benzo[1,3]dioxol-5-ylmethylquinazolino-4-ylamine] yielded a Glucose absorption of 1.5. Also, in the assay on AMPK, the “AMPK activity (degree of phosphorylation of serine-79 and threonine-172)” value turned out to be 1.3.

For the compound `COc1ccc(CNc2ncnc3ccccc23)c(OC)c1` [Compound 412, (2,4-Dimethoxybenzyl)-quinazolino-4-ylamine], the Glucose absorption in the assay on C2C12 muscle cells is reported as 1.7. In addition, the “AMPK activity (degree of phosphorylation of serine-79 and threonine-172)” value in the assay on AMPK came out at 8.4.
